Results: patent US20040105856A1 (priority 2002, published 2004)

Key:
[1] = biological target: recombinant human histamine H4 receptor (Homo sapiens, UniProt Q9H3N8); details: histamine 100 pM-100 uM, forskolin 3 uM
[2] = tested on: croton oil induced topical inflammation in mice; details: H4 ANTAG #1 10 mg/kg

Sequence of recombinant human histamine H4 receptor (Q9H3N8 whole entry): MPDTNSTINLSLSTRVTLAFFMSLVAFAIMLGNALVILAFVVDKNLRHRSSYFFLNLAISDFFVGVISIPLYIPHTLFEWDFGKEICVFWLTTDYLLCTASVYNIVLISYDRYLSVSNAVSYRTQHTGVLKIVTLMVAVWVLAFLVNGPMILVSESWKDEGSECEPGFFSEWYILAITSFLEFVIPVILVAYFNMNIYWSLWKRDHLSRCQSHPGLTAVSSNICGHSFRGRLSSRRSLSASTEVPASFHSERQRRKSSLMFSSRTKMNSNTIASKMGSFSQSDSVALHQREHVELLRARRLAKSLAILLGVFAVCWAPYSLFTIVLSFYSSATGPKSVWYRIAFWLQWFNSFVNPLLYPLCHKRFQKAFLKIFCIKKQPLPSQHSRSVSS

| Compound | Activation of the receptor (decrease of cAMP content in response to forskolin) [1] | Difference in ear thickness (×0.01 mm), Mean ([2]; s.c. 30 min before and 2, 4 h after croton oil, Indomethacin 30 mg/kg, measured 6 h after croton oil) | % inhib of ear swelling ([2]; versus vehicle group, Indomethacin 30 mg/kg s.c.) |
| --- | --- | --- | --- |
| NCCc1c[nH]cn1 [Histamine] | specifically activated |  |  |
| COc1ccc2c(c1)c(CC(=O)O)c(C)n2C(=O)c1ccc(Cl)cc1 [Indomethacin] |  | 10.0 ×0.01 mm | (−40%) |
